According to the CheMixHub viscosity set:

Assay: xn = mol fraction of the nth substance listed

COc1ccccc1 + C1CCCCC1
viscosity [mPa·s]
Conditions	298.15 K	303.15 K	308.15 K	313.15 K
101 kPa, x1 = 0.1016	0.8187	0.7586	0.7009	0.6496
101 kPa, x1 = 0.1993	0.7856	0.7308	0.68	0.6314
101 kPa, x1 = 0.3005	0.77	0.7174	0.668	0.6223
101 kPa, x1 = 0.3997	0.7696	0.7169	0.6674	0.6228
101 kPa, x1 = 0.5014	0.7849	0.7317	0.6829	0.637
101 kPa, x1 = 0.6014	0.803	0.7509	0.7001	0.6546
101 kPa, x1 = 0.7043	0.8378	0.7843	0.7318	0.6823
101 kPa, x1 = 0.8	0.8834	0.8216	0.7693	0.7163
101 kPa, x1 = 0.8992	0.9338	0.87	0.8092	0.7511
101.3 kPa, x1 = 0.0224	–	0.799	–	–
101.3 kPa, x1 = 0.0385	–	0.783	–	–
101.3 kPa, x1 = 0.0614	–	0.773	–	–
101.3 kPa, x1 = 0.4829	–	0.708	–	–
101.3 kPa, x1 = 0.5172	–	0.714	–	–
101.3 kPa, x1 = 0.5409	–	0.72	–	–
101.3 kPa, x1 = 0.5731	–	0.729	–	–
101.3 kPa, x1 = 0.7744	–	0.792	–	–
101.3 kPa, x1 = 0.8952	–	0.846	–	–
101.3 kPa, x1 = 0.9478	–	0.884	–	–

CC(=O)C1CCOC1=O (stereo not drawn) + CC(=O)C1CC1
101.3 kPa
Conditions	viscosity [mPa·s]
303.15 K, x2 = 0.0998	3.195
313.15 K, x2 = 0.3004	1.945

O=[N+]([O-])[O-].O=[N+]([O-])[O-].[Mg+2] + O
viscosity [mPa·s], 100 kPa
Conditions	x1 = 0.01	x1 = 0.03	x1 = 0.05	x1 = 0.07
298.15 K	1.138	1.6	2.409	4.609
323.15 K	0.707	0.9853	1.479	2.709

CC(=O)Oc1ccccc1C(=O)O + CCC(C)O
viscosity [mPa·s], 101 kPa
Conditions	x1 = 0.0007	x1 = 0.00094	x1 = 0.00118	x1 = 0.00141	x1 = 0.00165	x1 = 0.00189	x1 = 0.00236
293.15 K	3.623	3.624	3.626	3.627	3.628	3.63	3.632
298.15 K	3.014	3.015	3.015	3.016	3.017	3.018	3.02
303.15 K	2.525	2.526	2.527	2.527	2.528	2.529	2.531
308.15 K	2.12	2.121	2.122	2.123	2.123	2.124	2.125
310.15 K	1.974	1.975	1.976	1.976	1.977	1.978	1.979
313.15 K	1.792	1.793	1.794	1.795	1.796	1.797	1.798
